The source of these data is patent US20120129833A1, “CYCLIC KETOENOLS FOR THERAPY” (BAYER PHARMA AKTIENGESELLSCHAFT, priority 2010, published 2012).

Bounds are passed on as bounds.

The target in experiment [1] is T1, recombinant human ACC1 (acetyl-CoA carboxylase 1) (Homo sapiens, UniProt Q13085).
T1 construct: NM_198834, amino acids 39—end; FLAG (C); made in house; host or cells: baculovirus-transfected insect cells (Hi5)
The experiment in a line: Human ACC1 enzyme assay (HTRF ADP detection).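 Further: ADP by-product quantified by competitive HTRF immunoassay with europium cryptate anti-ADP antibody and d2-labelled ADP, read after 1 h binding at 22 °C, enzyme near 2.5 ng/µl.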 The format is biochemical. The conditions noted are these: 50 μM ATP, 20 μM acetyl-CoA, 15 min pre-incubation, 20 min at 22° C.; read-out: ACC 1 IC50. In general terms: TR-FRET usually uses a lanthanide donor and a delayed reading to cut background.
Experimental: The basic principle of the assay is the measurement of adenosine diphosphate (ADP), which is formed as a by-product, by means of an HTRF®-based competitive immunoassay (HTRF=Homogeneous Time Resolved Fluorescence).
The amount of complex of d2-labelled ADP and europium cryptate-labelled anti-ADP antibody was then determined by measuring the resonance energy transfer of europium cryptate to d2.

The target of experiment [2] is T2, ACC2 (acetyl-CoA carboxylase 2) (Homo sapiens, UniProt O00763).
T2 construct: catalogue no; 50201, amino acids 39—end, expressed in baculovirus-transfected Sf9 insect cells; His (C); purchased BPS Bioscience (San Diego, Calif.) 50201; host or cells: baculovirus-transfected Sf9 insect cells
The experiment in a line: Human ACC2 enzyme assay (HTRF ADP detection). The format is biochemical. As to conditions: 20 μM acetyl-CoA, 15 min pre-incubation, 20 min at 22° C.; read-out: ACC 2 IC50.

T2 sequence (O00763 39-2458 limits assumed): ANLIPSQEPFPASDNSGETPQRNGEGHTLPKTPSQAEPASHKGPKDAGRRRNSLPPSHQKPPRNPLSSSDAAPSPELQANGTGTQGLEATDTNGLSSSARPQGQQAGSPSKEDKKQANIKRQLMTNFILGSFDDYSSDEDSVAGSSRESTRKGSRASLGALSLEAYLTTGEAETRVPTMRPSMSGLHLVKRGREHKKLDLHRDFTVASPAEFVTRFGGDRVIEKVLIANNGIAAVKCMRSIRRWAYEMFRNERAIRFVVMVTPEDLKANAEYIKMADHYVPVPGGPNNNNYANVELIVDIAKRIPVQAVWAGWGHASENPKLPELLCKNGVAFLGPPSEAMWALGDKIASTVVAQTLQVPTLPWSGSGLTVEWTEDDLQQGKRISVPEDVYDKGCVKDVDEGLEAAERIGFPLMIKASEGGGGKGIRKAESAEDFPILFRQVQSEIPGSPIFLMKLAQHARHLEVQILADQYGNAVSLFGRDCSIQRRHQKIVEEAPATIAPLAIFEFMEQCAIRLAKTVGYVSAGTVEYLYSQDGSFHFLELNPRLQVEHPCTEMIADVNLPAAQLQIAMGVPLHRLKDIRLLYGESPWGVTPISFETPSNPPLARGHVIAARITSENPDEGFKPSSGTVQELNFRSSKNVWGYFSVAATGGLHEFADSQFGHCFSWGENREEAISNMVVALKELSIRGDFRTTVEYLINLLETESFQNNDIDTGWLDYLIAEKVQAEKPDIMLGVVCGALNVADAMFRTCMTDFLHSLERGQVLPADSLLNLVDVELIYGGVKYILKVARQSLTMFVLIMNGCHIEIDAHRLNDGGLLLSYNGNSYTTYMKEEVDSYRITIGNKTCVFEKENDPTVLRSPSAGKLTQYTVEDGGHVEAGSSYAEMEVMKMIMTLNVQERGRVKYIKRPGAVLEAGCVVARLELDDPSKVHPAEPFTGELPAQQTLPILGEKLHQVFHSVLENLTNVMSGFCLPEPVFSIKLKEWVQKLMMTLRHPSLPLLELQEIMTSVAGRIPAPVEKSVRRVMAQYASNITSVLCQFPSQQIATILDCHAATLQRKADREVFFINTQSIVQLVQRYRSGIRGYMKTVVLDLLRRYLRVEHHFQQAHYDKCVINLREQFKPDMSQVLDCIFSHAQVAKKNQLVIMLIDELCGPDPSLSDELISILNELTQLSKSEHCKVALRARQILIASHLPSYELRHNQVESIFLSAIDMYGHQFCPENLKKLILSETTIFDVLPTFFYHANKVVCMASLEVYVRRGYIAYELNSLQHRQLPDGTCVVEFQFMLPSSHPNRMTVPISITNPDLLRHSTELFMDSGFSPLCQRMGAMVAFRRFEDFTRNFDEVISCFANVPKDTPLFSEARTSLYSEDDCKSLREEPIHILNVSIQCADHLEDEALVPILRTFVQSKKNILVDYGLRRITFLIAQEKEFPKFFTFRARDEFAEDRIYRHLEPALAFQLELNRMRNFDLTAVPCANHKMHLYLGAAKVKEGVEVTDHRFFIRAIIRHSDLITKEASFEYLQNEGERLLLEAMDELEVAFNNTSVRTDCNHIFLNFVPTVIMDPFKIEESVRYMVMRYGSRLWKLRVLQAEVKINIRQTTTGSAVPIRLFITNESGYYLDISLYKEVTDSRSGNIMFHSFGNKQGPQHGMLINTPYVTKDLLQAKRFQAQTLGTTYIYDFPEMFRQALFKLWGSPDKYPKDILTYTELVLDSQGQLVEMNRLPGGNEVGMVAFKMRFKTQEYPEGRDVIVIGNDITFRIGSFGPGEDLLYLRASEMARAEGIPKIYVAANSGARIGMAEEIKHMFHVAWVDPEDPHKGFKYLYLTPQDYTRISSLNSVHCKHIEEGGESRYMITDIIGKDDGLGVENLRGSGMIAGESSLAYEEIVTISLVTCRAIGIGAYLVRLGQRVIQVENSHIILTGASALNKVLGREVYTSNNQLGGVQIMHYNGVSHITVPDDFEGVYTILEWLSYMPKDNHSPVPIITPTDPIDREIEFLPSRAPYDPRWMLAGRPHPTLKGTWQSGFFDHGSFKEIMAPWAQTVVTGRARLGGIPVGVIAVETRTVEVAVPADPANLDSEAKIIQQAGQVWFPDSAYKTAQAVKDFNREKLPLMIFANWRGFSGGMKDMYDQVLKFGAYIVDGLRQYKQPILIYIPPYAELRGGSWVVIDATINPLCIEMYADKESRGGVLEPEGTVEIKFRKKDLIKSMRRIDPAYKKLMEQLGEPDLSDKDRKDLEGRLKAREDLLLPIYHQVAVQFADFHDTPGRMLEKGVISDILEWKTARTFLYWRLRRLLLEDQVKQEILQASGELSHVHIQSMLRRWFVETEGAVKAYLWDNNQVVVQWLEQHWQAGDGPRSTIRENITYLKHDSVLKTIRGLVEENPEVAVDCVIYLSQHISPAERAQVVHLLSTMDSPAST

As a reminder, the IC50 is the point on the concentration scale where inhibition reaches its midpoint. Turning to `CCOC1CCC2(CC1)NC(=O)C(c1cc(-c3cccc(Cl)c3)ccc1C)=C2O` (centres unmarked) [Example 1-79, 3-(3′-chloro-4-methylbiphenyl-3-yl)-8-ethoxy-4-hydroxy-1-azaspiro[4.5]dec-3-en-2-one], the 50% inhibitory concentration (IC50) in experiment [1] is 848 nM; in experiment [2], over 20000 nM.

For `COC1CCC2(CC1)NC(=O)C(c1cc(-c3cc(F)ccc3F)ccc1C)=C2O` (centres unmarked) [Example 1-80, 3-(2′,5′-difluoro-4-methylbiphenyl-3-yl)-4-hydroxy-8-methoxy-1-azaspiro[4.5]dec-3-en-2-one], the half-inhibitory concentration (IC50) in experiment [1] is 695 nM; in experiment [2], over 20000 nM.

For `Cc1ccc(-c2ccc(Cl)cc2)cc1C1=C(O)C2(CCCC(C)C2)NC1=O` (centres unmarked) [Example 1-82, 3-(4′-chloro-4-methylbiphenyl-3-yl)-4-hydroxy-7-methyl-1-azaspiro[4.5]dec-3-en-2-one], the half-maximal inhibitory concentration (IC50) in experiment [1] came out at 542 nM; in experiment [2] it was 433 nM.

For `CCCC1CCC2(CC1)NC(=O)C(c1cc(-c3ccc(Cl)cc3)ccc1C)=C2O` (centres unmarked) [Example 1-83, 3-(4′-chloro-4-methylbiphenyl-3-yl)-4-hydroxy-8-propyl-1-azaspiro[4.5]dec-3-en-2-one], the IC50 was found to be 459 nM in experiment [1] and 349 nM in experiment [2].

As to `Cc1ccc(-c2ccc(Cl)cc2)cc1C1=C(O)C2(CCCC2)NC1=O` [Example 1-85, 3-(4′-chloro-4-methylbiphenyl-3-yl)-4-hydroxy-1-azaspiro[4.4]non-3-en-2-one], the IC50 in experiment [1] came to 340 nM; in experiment [2], 4000 nM.

For the molecule `Cc1ccc(-c2ccc(Cl)cc2)cc1C1=C(O)C(C)(C2CC2)NC1=O` (centres unmarked) [Example 1-86, 3-(4′-chloro-4-methylbiphenyl-3-yl)-5-cyclopropyl-4-hydroxy-5-methyl-1,5-dihydro-2H-pyrrol-2-one], the values for the 50% inhibitory concentration (IC50) in experiment [1] and in experiment [2] were 541 nM and 3300 nM, respectively.

Take `CC[C@]1(OC)CC[C@@]2(CC1)NC(=O)C(c1c(C)ccc(-c3ccc(Cl)cc3)c1C)=C2O` [Example 1-88, (5r,8r)-3-(4′-chloro-2,4-dimethylbiphenyl-3-yl)-8-ethyl-4-hydroxy-8-methoxy-1-azaspiro[4.5]dec-3-en-2-one]: the results for the half-maximal inhibitory concentration (IC50) in experiment [1] and in experiment [2] were 825 nM and 6900 nM, respectively.

As to `CC[C@]1(OC)CC[C@@]2(CC1)NC(=O)C(c1c(C)ccc(-c3ccc(F)cc3)c1C)=C2O` [Example 1-89, (5r,8r)-8-ethyl-3-(4′-fluoro-2,4-dimethylbiphenyl-3-yl)-4-hydroxy-8-methoxy-1-azaspiro[4.5]dec-3-en-2-one], the half-inhibitory concentration (IC50) in experiment [1] was 858 nM; in experiment [2] it was over 20000 nM.

With `CCC1CCC2(CC1)OC(=O)C(c1cc(-c3ccc(Cl)cc3)ccc1C)=C2O` (centres unmarked) [Example 2-1, 3-(4′-chloro-4-methylbiphenyl-3-yl)-8-ethyl-4-hydroxy-1-oxaspiro[4.5]dec-3-en-2-one], the values for the IC50 in experiment [1] and in experiment [2] were 243 nM and 4150 nM, respectively.

On to `Cc1ccc(-c2ccc(Cl)cc2)c(C)c1C1=C(O)C2(CCCC2)OC1=O` [Example 2-2, 3-(4′-chloro-2,4-dimethylbiphenyl-3-yl)-4-hydroxy-1-oxaspiro[4.4]non-3-en-2-one], for which the IC50 in experiment [1] amounted to 260 nM; in experiment [2], 5280 nM.

In the case of `Cc1ccc(-c2ccc(Cl)cc2)cc1C1=C(O)C(C)(C)OC1=O` [Example 2-3, 3-(4′-chloro-4-methylbiphenyl-3-yl)-4-hydroxy-5,5-dimethylfuran-2(5H)-one], the 50% inhibitory concentration (IC50) came out at 581 nM in experiment [1] and 11700 nM in experiment [2].

As to `Cc1ccc(-c2ccc(Cl)cc2)c(C)c1C1=C(O)C2(CCCCC2)OC1=O` [Example 2-4, 3-(4′-chloro-2,4-dimethylbiphenyl-3-yl)-4-hydroxy-1-oxaspiro[4.5]dec-3-en-2-one], the values for the half-inhibitory concentration (IC50) in experiment [1] and in experiment [2] were 190 nM and 1500 nM, respectively.

Consider `Cc1cc(C)c(-c2ccc(Cl)cc2)c(C)c1C1=C(O)C(C)(C)OC1=O` [Example 2-5, 3-(4′-chloro-2,4,6-trimethylbiphenyl-3-yl)-4-hydroxy-5,5-dimethylfuran-2(5H)-one], for which the figures for the half-inhibitory concentration (IC50) in experiment [1] and in experiment [2] were 1480 nM and 5720 nM, respectively.

`Cc1cc(C)c(-c2ccc(Cl)cc2)c(C)c1C1=C(O)C2(CCCCC2)OC1=O` [Example 2-6, 3-(4′-chloro-2,4,6-trimethylbiphenyl-3-yl)-4-hydroxy-1-oxaspiro[4.5]dec-3-en-2-one]: the concentration for half-maximal inhibition (IC50) in experiment [1] turned out to be 2150 nM; in experiment [2] it was 139 nM.

Turning to `COC1CCC2(CC1)OC(=O)C(c1cc(-c3ccccc3Cl)ccc1C)=C2O` (centres unmarked) [Example 2-7, 3-(2′-chloro-4-methylbiphenyl-3-yl)-4-hydroxy-8-methoxy-1-oxaspiro[4.5]dec-3-en-2-one], the figures for the IC50 in experiment [1] and in experiment [2] were 500 nM and over 20000 nM, respectively.

As for `Cc1ccc(-c2ccc(Cl)cc2)cc1C1=C(O)C2(CC2)OC1=O` [Example 2-8, 6-(4′-chloro-4-methylbiphenyl-3-yl)-7-hydroxy-4-oxaspiro[2.4]hept-6-en-5-one], the IC50 in experiment [1] was 420 nM; in experiment [2] it was over 20000 nM.

`Cc1ccc(-c2ccc(Cl)cc2)cc1C1=C(O)C2(CCCOC2)OC1=O` (centres unmarked) [Example 2-9, 3-(4′-chloro-4-methylbiphenyl-3-yl)-4-hydroxy-1,7-dioxaspiro[4.5]dec-3-en-2-one]: the IC50 in experiment [1] was 334 nM; in experiment [2], over 20000 nM.

Turning to `Cc1ccc(-c2ccc(Cl)cc2)cc1C1=C(O)C2(CCCCC2)OC1=O` [Example 2-10, 3-(4′-chloro-4-methylbiphenyl-3-yl)-4-hydroxy-1-oxaspiro[4.5]dec-3-en-2-one], the IC50 was 161 nM in experiment [1] and 2350 nM in experiment [2].

As for `COC1CCCC2(C1)OC(=O)C(c1cc(-c3ccc(Cl)cc3)c(C)cc1C)=C2O` (centres unmarked) [Example 2-11, 3-(4′-chloro-4,6-dimethylbiphenyl-3-yl)-4-hydroxy-7-methoxy-1-oxaspiro[4.5]dec-3-en-2-one], the IC50 worked out at 666 nM in experiment [1] and 1550 nM in experiment [2].

In the case of `COC1CCCC2(C1)OC(=O)C(c1c(C)cc(C)c(-c3ccc(Cl)cc3)c1C)=C2O` (centres unmarked) [Example 2-12, 3-(4′-chloro-2,4,6-trimethylbiphenyl-3-yl)-4-hydroxy-7-methoxy-1-oxaspiro[4.5]dec-3-en-2-one], the IC50 in experiment [1] came out at 4170 nM; in experiment [2], 1150 nM.

For the molecule `COC1CCCC2(C1)OC(=O)C(c1cc(-c3ccc(Cl)cc3)ccc1Cl)=C2O` (centres unmarked) [Example 2-13, 3-(4,4′-dichlorobiphenyl-3-yl)-4-hydroxy-7-methoxy-1-oxaspiro[4.5]dec-3-en-2-one], the figures for the IC50 in experiment [1] and in experiment [2] were 816 nM and over 20000 nM, respectively.

As for `COC1CCCC2(C1)OC(=O)C(c1cc(-c3ccc(Cl)cc3)ccc1C)=C2O` (centres unmarked) [Example 2-14, 3-(4′-chloro-4-methylbiphenyl-3-yl)-4-hydroxy-7-methoxy-1-oxaspiro[4.5]dec-3-en-2-one], the IC50 in experiment [1] came to 562 nM; in experiment [2], 19400 nM.

`Cc1ccc(-c2ccc(Cl)cc2)cc1C1=C(O)C2(CCC3(CC2)OCCO3)OC1=O` [Example 2-15, 11-(4′-chloro-4-methylbiphenyl-3-yl)-12-hydroxy-1,4,9-trioxadispiro[4.2.4.2]tetradec-11-en-10-one]: the IC50 in experiment [1] stood at 204 nM; in experiment [2] it was 3680 nM.

Regarding `COCC1CCC2(CC1)OC(=O)C(c1cc(-c3ccc(Cl)cc3)ccc1Cl)=C2O` (centres unmarked) [Example 2-16, 3-(4,4′-dichlorobiphenyl-3-yl)-4-hydroxy-8-(methoxymethyl)-1-oxaspiro[4.5]dec-3-en-2-one], the IC50 worked out at 180 nM in experiment [1] and 3340 nM in experiment [2].

Turning to `COCC1CCC2(CC1)OC(=O)C(c1c(C)ccc(-c3ccc(Cl)cc3)c1C)=C2O` (centres unmarked) [Example 2-17, 3-(4′-chloro-2,4-dimethylbiphenyl-3-yl)-4-hydroxy-8-(methoxymethyl)-1-oxaspiro[4.5]dec-3-en-2-one], the IC50 in experiment [1] stood at 158 nM; in experiment [2], 652 nM.

In the case of `COCCC1CCCC2(C1)OC(=O)C(c1cc(-c3ccc(Cl)cc3)ccc1C)=C2O` (centres unmarked) [Example 2-18, 3-(4′-chloro-4-methylbiphenyl-3-yl)-4-hydroxy-7-(2-methoxyethyl)-1-oxaspiro[4.5]dec-3-en-2-one], the results for the IC50 in experiment [1] and in experiment [2] were 479 nM and 3410 nM, respectively.

In the case of `COCCC1CCCC2(C1)OC(=O)C(c1cc(-c3ccc(Cl)cc3)ccc1Cl)=C2O` (centres unmarked) [Example 2-19, 3-(4,4′-dichlorobiphenyl-3-yl)-4-hydroxy-7-(2-methoxyethyl)-1-oxaspiro[4.5]dec-3-en-2-one], the half-inhibitory concentration (IC50) in experiment [1] came to 530 nM; in experiment [2], 10000 nM.

Turning to `COCC1CCC2(CC1)OC(=O)C(c1cc(-c3ccc(Cl)cc3)ccc1C)=C2O` (centres unmarked) [Example 2-20, 3-(4′-chloro-4-methylbiphenyl-3-yl)-4-hydroxy-8-(methoxymethyl)-1-oxaspiro[4.5]dec-3-en-2-one], the figures for the half-inhibitory concentration (IC50) in experiment [1] and in experiment [2] were 137 nM and 1930 nM, respectively.

Turning to `Cc1ccc(-c2ccc(F)cc2)cc1C1=C(O)C2(CCCCC2)OC1=O` [Example 2-21, 3-(4′-fluoro-4-methylbiphenyl-3-yl)-4-hydroxy-1-oxaspiro[4.5]dec-3-en-2-one], the half-inhibitory concentration (IC50) is 400 nM in experiment [1] and over 20000 nM in experiment [2].

Regarding `Cc1ccc(-c2ccc(F)c(F)c2)cc1C1=C(O)C2(CCCC2)OC1=O` [Example 2-22, 3-(3′,4′-difluoro-4-methylbiphenyl-3-yl)-4-hydroxy-1-oxaspiro[4.4]non-3-en-2-one], the IC50 in experiment [1] was 824 nM; in experiment [2], over 20000 nM.

Turning to `Cc1ccc(-c2ccc(F)c(Cl)c2)cc1C1=C(O)C2(CCCC2)OC1=O` [Example 2-23, 3-(3′-chloro-4′-fluoro-4-methylbiphenyl-3-yl)-4-hydroxy-1-oxaspiro[4.4]non-3-en-2-one], the 50% inhibitory concentration (IC50) in experiment [1] is 1370 nM; in experiment [2], over 20000 nM.
